The text below walks through data of paper PMC12195956 (Molecules, 2025).

In data set [1] the test system is L929 (Mouse Connective Cell Line). In words: MTT assay (antipsoriatic activity). Type of data set: cell-based. On the procedure: The L929 mouse connective tissue cell line was received from the National Center for Cell Sciences (NCCS), Pune, India and grown in DMEM media containing 10% fetal bovine serum. The cells were kept at 37 °C in a 5% CO2 incubator and seeded at a density of 1 × 10⁴ cells/mL in culture media for 24 h. To conduct the experiment, 70 μL of cell suspension (1 × 10^4 cells/well) were added to 100 μL of culture media on a 96-well tissue culture plate. Sample was added to wells at varying doses (25, 50, and 100 μg/mL), while control wells contained 0.2% DMSO in PBS with cell culture. All experiments were performed in triplicate to ensure reliability and reproducibility of the results. Control wells were utilized to evaluate cell viability and calculate the percentage of cells that survived after incubation. The cultures were incubated at 37 °C with 5% CO2 for 24 h in a CO2 incubator (Thermo Scientific BB150, Thermo Fisher Scientific Inc., Waltham, MA, USA). After incubation, the media were removed and 20 μL of MTT reagent (5 mg/mL in PBS) was added. The plates were incubated for a further 4 h at 37 °C to allow live cells to convert the MTT into formazan crystals, which were then viewed under a microscope. After removing the medium, 200 μL of DMSO was added and incubated at 37 °C for 10 min while protected from light with aluminum foil. Each sample’s absorbance was measured at 570 nm using an ELISA microplate reader (Benesphera E21, Avantor Performance Materials India Private Limited, Gurgoan, India), with triplicates tested for accuracy.
A general note: Formazan colour is commonly taken as a measure of viable cells.

The conditions of data set [2]: previously reported value ref 37; cited from earlier work.
A short description of data set [3]: pKa and percentage ionization (Henderson–Hasselbalch equation). Type of data set: physicochemical. The text has this:
One study reported an average pH of 5.2 in psoriatic skin, compared to 5.6 in healthy skin [36]. […] The optimal pH range for topical application is 6–7 to balance efficacy and skin irritation.

Data set [4] can be described thus: Solubility screening of anthralin in oils, surfactants and co-surfactants. To be noted: read-out: drug solubility. Type of data set: physicochemical. As to the method: Excess drug was dissolved in 1 mL of the aforementioned oils, surfactant, and co-surfactant, and vortexed continuously for 48 h. The samples were centrifuged at 5000–7000 rpm for 15 min after which they were left to rest for 72 h.

The next data set relates to Propionibacterium. In words: Antibacterial activity, zone of inhibition. Type of data set: cell-based. To be noted: 24 h incubation. As to the method:
Nutrient Agar (NA-Himedia, HiMedia Laboratories Pvt. Ltd., Mumbai, India) was prepared by dissolving 28.0 g in 1000 mL distilled water, sterilized at 121 °C for 15 min, and poured into sterile Petri plates. Propionibacterium was used for microbial assays. A 24 h pure culture was prepared by suspending the microorganisms in saline solution, streaking onto culture slants, and incubating at 37 °C. Standard solutions, including Clindamycin (25 mg/mL), were prepared in sterile water and stored under refrigeration. Plates were prepared using the pour plate method by pouring melted agar into sterile plates and allowing its solidification before use.
A sterile, non-toxic cotton swab was dipped in the standardized inoculums (turbidity was adjusted to achieve confluent growth on the Petri plate), and the entire plate’s agar surface was streaked with the swab three times, turning the plate at a 60-degree angle between streaking. The streaked inoculums were then allowed to dry for 5–15 min with the lid on. Then, using sterile well punches, a bore was punched on the prepared plates (8 mm). With the assistance of a sterile micropipette, a 10 μL dosage of produced microemulsion and standard medication Clindamycin were injected into each bore in an aseptic environment. Plates were maintained at room temperature for 30 min before being incubated for 24 h at 37 °C. The diameter of the inhibitory zones was measured using a scale in mm.
The antibacterial potential of test compounds was assessed using the mean diameter of the zone of inhibition around the disc in millimeters. The zones of inhibition of the studied microorganisms by the substances were determined on a millimeter scale.

≈ marks a conversion by molar mass, not a printed value. Read-outs that look alike come from different tables or passages of the source.

Usually inhibition stands for how much of the control response was suppressed. Read a high inhibition as a strong effect. One may read the viability as a per cent measure of how many cells are alive, often set against a control. The low end stands for a greater loss of cells, the high end for better survival. Broadly, the IC50 is the concentration that gives 50% inhibition. One may read the pKa as the negative logarithm of the acid dissociation constant. A word on the solubility: it is the dissolved amount per volume that the medium holds. With `O=C1c2c(O)cccc2Cc2cccc(O)c21` [Anthralin], in data set [1] (L929, 100 µg/mL, 24 h), the Inhibition % stood at 60.345%. This molecule showed an inhibition at 25 µg/mL in data set [1] (Mus musculus, L929, 24 h, L929, 25 µg/mL, 24 h) of 47.9%. Also, the inhibition at 50 µg/mL in data set [1] (Mus musculus, L929, 24 h, L929, 50 µg/mL, 24 h) was found to be 53%. This molecule displayed an inhibition at 100 µg/mL in data set [1] (Mus musculus, L929, 24 h, L929, 100 µg/mL, 24 h) of 60.3%. The molecule further had a viability at 25 µg/mL in data set [1] (Mus musculus, L929, 25 µg/mL, 24 h) of 52.1%. This molecule also showed a viability at 50 µg/mL in data set [1] (Mus musculus, L929, 50 µg/mL, 24 h) of 47%. In data set [1] (Mus musculus, L929, 100 µg/mL, 24 h), this molecule showed a viability at 100 µg/mL of 39.7%. In data set [1] (Mus musculus, L929, from linear regression of % inhibition vs. concentration), this molecule displayed a concentration for half-maximal inhibition (IC50) of 36.2 µg/mL (≈ 0.16 mM). Further, the pKa in data set [2] is 9.06. Moreover, the percentage ionization in data set [3] (pH 5.2 (psoriatic skin)) came out at 0.01%; in data set [3] (pH 5.6 (healthy skin)) it was 0.03%. The solubility at 48 h came to 14.1 mg/mL (≈ 62.2 mM) in data set [4] (PEG 400, 27 °C, organic solvent or mixture, thermodynamic from solid, in PEG 400, room temperature (27 ± 1 °C)); 4.23 mg/mL (≈ 18.7 mM) in data set [4] (Span 20, thermodynamic from solid, in Span 20); 15.6 mg/mL (≈ 68.8 mM) in data set [4] (Transcutol-P, organic solvent or mixture, thermodynamic from solid, in Transcutol-P); 11.6 mg/mL (≈ 51.2 mM) in data set [4] (Tween 20, thermodynamic from solid, in Tween 20); 56 mg/mL (≈ 248 mM) in data set [4] (Tween 80, 27 °C, thermodynamic from solid, in Tween 80, room temperature (27 ± 1 °C)); 23.9 mg/mL (≈ 106 mM) in data set [4] (castor oil, oil or lipid, thermodynamic from solid, in castor oil). In addition, the solubility at 48 h in data set [4] (ethanol, organic solvent or mixture, thermodynamic from solid, in ethanol) came to 9.23 mg/mL (≈ 40.8 mM); in data set [4] (oleic acid, 27 °C, oil or lipid, thermodynamic from solid, in oleic acid, room temperature (27 ± 1 °C)) it was 44.2 mg/mL (≈ 196 mM); in data set [4] (olive oil, oil or lipid, thermodynamic from solid, in olive oil), 28.2 mg/mL (≈ 125 mM).
On to `O=c1[nH]cc(F)c(=O)[nH]1` [Batch 5-FU, 5-flurouracil], for which the “Cell Viability %” value in data set [1] (L929, 25 µg/mL, 24 h) was 33.90%; in data set [1] (L929, 50 µg/mL, 24 h) it was 29.87%; in data set [1] (L929, 100 µg/mL, 24 h), 21.00%. Moreover, the Inhibition % in data set [1] (L929, 25 µg/mL, 24 h) is on record as 66.10%; in data set [1] (L929, 50 µg/mL, 24 h), 70.13%; in data set [1] (L929, 100 µg/mL, 24 h), 79.00%.
One may read the zone of inhibition as the extent of the growth-free halo in a diffusion test. A low value points to little suppression of growth. Consider `CCC[C@@H]1C[C@@H](C(=O)N[C@@H]([C@H]2O[C@H](SC)[C@H](O)[C@@H](O)[C@H]2O)[C@H](C)Cl)N(C)C1` [Clindamycin], for which, in the data set on Propionibacterium (25 μg/mL), the zone of inhibition at 25 µg/mL was 11.3 ± 1.15 mm. This molecule also returned a zone of inhibition at 50 µg/mL with Propionibacterium (50 μg/mL) of 13.7 ± 1.15 mm. The molecule also displayed a zone of inhibition at 100 µg/mL in the data set with Propionibacterium (100 μg/mL) of 20.7 ± 1.15 mm.
